This is an account of results in patent US11439660B2, “Antimicrobial poly(alkylated imidazolium) salts” (NANYANG TECHNOLOGICAL UNIVERSITY, priority 2017, dated 2022).

In test [1] the test system is PAO1. Briefly: Mouse septicemia model, survival. The format is in vivo. As to conditions: 1 mg/kg IP at 0.5 h, 4 h and 8 h post-infection; monitored over 7 days. The procedure:
Given the excellent bacteria killing properties and biocompatibility of PIM 1 chloride, the therapeutic efficacy of this polymer was tested in vivo using a mouse septicemia model (FIG. 13). Balb/c female mice (7 weeks with one week quarantine) were used to test the PAO1 septic shock protection efficacy of PIM 1. Exponential phase of PAO1 was collected and washed twice with PBS, and re-suspended in the same volume of PBS. 300 μL of cell suspension containing 3×10^7 CFU of PAO1 was introduced into each mouse via intraperitoneal injection to induce septic shock. […] The survival rate of the mice was monitored over 7 days.

In test [2] the test system is AB-1 (carbapenem-resistant Acinetobacter baumannii, CRAB). The note with it: imipenem control, 2 mg/kg × 3 doses.
Procedure: In another study, mice (5 per group) were treated with varied doses of PIM 1 at 1 h, 4 h and 8 h post-infection with PAO1. Positive and negative control groups of mice were injected with 2 mg/kg of imipenem and same volume of PBS respectively, at the same time point. At the 12th hour, all mice were euthanized with peritoneal washes performed via injecting 3.0 mL of PBS into the intraperitoneal cavity followed by massaging the abdomen for 1 min. After which, approximately 1 mL of peritoneal fluid was recovered to calculating the CFU of bacteria, as well as for immune cells quantification. Bacterial loads were also evaluated in the spleen, liver and kidneys of the animals.
For carbapenem-resistant Acinetobacter baumannii (CRAB) and carbapenem-resistant Pseudomonas aeruginosa (CRPA) septicemia protection model, similar procedure was conducted with care and 5% mucin was injected together with the bacteria to have the mice immunocompromised (resulting in similar conditions as hospitalised patients). The amount of bacteria was analysed with one-way classification analysis of variance (ANOVA) and student's t-test (Graphpad Prism for Windows, version 7).
The subject of test [3] is PAER (carbapenem-resistant Pseudomonas aeruginosa, CRPA). The note with it: imipenem control, 2 mg/kg, 3 doses.
Procedure: In another study, mice (5 per group) were treated with varied doses of PIM 1 at 1 h, 4 h and 8 h post-infection with PAO1. Positive and negative control groups of mice were injected with 2 mg/kg of imipenem and same volume of PBS respectively, at the same time point. At the 12th hour, all mice were euthanized with peritoneal washes performed via injecting 3.0 mL of PBS into the intraperitoneal cavity followed by massaging the abdomen for 1 min. After which, approximately 1 mL of peritoneal fluid was recovered to calculating the CFU of bacteria, as well as for immune cells quantification.
For carbapenem-resistant Acinetobacter baumannii (CRAB) and carbapenem-resistant Pseudomonas aeruginosa (CRPA) septicemia protection model, similar procedure was conducted with care and 5% mucin was injected together with the bacteria to have the mice immunocompromised (resulting in similar conditions as hospitalised patients).
The test system of test [4] is SA29213. In kind it is cell-based, S. aureus. The note with it: serial passaging at sub-MIC levels, 21 days. The procedure:
Aliquots of the bacteria at various time points were stored in glycerol and kept at −80° C. for further study whenever resistance development was observed. Ofloxacin was used as the positive control.

In test [1], colistin yielded a survival rate of 80%.
Consider `C[C@@H](O)[C@H]1C(=O)N2C(C(=O)O)=C(SCCN=CN)C[C@H]12` [imipenem], for which the “removal of AB-1 from the peritoneal fluid (in words)” value in test [2] is reported as “did not show any removal”. In test [3], the “reduction in the population of CRPA in the intraperitoneal fluid (in words)” value is given as “no reduction”.
For the molecule `CC1COc2c(N3CCN(C)CC3)c(F)cc3c(=O)c(C(=O)O)cn1c23` (stereo not shown) [ofloxacin], the resistance evolution entry in test [4] was “above 128 MIC fold change”.
